Assay results as given in publication PMC12435834, “The GLYT1 inhibitor bitopertin mitigates erythroid PPIX production and liver disease in erythroid protoporphyria” (The Journal of Clinical Investigation, 2025).

Tests used:
GLYT1 [1] = target: T1, GLYT1 (Mus musculus, UniProt P28571); assay: ex vivo 3H-glycine uptake by peripheral blood cells of orally dosed mice vs free plasma concentration
T1 construct: gene Slc6a9
T1 sequence (P28571 1-692): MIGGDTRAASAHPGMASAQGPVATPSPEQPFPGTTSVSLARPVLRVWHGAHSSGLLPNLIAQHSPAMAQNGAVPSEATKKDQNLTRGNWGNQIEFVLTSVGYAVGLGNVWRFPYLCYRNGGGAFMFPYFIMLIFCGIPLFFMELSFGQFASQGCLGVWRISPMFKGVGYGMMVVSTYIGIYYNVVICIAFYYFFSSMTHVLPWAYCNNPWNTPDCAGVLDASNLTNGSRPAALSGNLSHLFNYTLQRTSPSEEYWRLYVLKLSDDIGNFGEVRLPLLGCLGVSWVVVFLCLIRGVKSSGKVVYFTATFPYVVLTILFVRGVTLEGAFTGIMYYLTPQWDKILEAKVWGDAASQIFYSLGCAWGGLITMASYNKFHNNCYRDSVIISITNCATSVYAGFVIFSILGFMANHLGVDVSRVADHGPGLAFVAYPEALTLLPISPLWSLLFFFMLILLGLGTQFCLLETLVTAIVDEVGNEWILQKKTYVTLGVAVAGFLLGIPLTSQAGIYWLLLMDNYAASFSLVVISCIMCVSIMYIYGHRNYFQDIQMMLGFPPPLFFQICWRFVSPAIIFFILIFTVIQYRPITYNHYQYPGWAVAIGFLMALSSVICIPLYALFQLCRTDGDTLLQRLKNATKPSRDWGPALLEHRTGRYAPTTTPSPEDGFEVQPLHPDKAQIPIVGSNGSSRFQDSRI

GLYT1 [2] = target: T2, GLYT1 (Rattus norvegicus, UniProt P28572); assay: ex vivo 3H-glycine uptake by peripheral blood cells of orally dosed rats vs free plasma concentration
T2 construct: gene Slc6a9
T2 sequence (P28572 1-638): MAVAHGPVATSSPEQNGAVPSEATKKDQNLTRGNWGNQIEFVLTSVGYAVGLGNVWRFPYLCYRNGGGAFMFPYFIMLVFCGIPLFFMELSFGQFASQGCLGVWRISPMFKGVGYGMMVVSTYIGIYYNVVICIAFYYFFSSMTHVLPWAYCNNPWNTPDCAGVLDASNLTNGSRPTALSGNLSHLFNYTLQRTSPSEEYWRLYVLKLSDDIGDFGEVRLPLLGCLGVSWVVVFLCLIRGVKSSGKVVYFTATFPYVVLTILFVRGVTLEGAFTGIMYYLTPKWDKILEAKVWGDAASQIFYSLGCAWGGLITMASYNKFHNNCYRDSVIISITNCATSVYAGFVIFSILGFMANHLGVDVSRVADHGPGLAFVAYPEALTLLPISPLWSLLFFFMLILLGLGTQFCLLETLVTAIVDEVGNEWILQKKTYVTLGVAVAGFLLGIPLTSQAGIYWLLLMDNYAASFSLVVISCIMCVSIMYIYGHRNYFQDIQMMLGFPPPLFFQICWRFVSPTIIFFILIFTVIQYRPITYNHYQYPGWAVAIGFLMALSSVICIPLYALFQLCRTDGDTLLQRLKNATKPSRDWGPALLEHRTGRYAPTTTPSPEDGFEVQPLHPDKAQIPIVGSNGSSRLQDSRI

EC50 (GLYT1 [1]): 1.2 nM
EC50 (GLYT1 [2]): 2 nM
Compound: C[C@H](Oc1ccc(S(C)(=O)=O)cc1C(=O)N1CCN(c2ncc(C(F)(F)F)cc2F)CC1)C(F)(F)F [bitopertin, [4-(3-fluoro-5-trifluoromethylpyridin-2-yl)piperazin-1-yl][5-methanesulfonyl-2-((S)-2,2,2-trifluoro-1-methylethoxy)phenyl]methanone]
